Data as given in patent US8628767B2, “Purine nucleoside phosphorylase as enzymatic activator of nucleoside prodrugs” (priority 2008, dated 2014).

Key:
[1] = system: T. vaginalis PNP; assay: Substrate cleavage by wild-type Tv-PNP (HPLC); assay type: biochemical, Trichomonas vaginalis; conditions: for rate of enzymatic cleavage by T. vaginalis PNP: 100 micromolar substrate, HPLC separation of base from nucleoside; for activity of Tv-PNP as compared to wild-type E. coli PNP: summary of Table 1
Method: (§1) The method quantitatively measures the cleavage of substrates in vitro. The purine analog nucleosides (0.1 mM in 500 μl of 100 mM HEPES, pH 7.4, 50 mM potassium phosphate) are combined with 100 μg/ml Tv-PNP or wild-type E. coli PNP. The reaction mixtures are incubated at 25° C. for 1 hour, and the reactions stopped by boiling each sample for 2 minutes. Protein concentration and time of assay are varied depending on activity of enzyme for a particular substrate. Each sample is analyzed by reverse phase HPLC to measure conversion from substrate to product. The nucleoside and purine analogs are eluted from a Spherisorb ODSI (5 μm) column (Keystone Scientific, Inc., State College, Pa.) with a solvent containing 50 mM ammonium dihydrogen phosphate (95%) and acetonitrile (5%). Products are detected by absorbance at 254 nm, and are identified by comparing their retention times and absorption spectra with authentic control samples.
Numerous compounds are tested for efficiency as substrate for Tv-PNP in parallel comparison with E. coli PNP. The compounds include various analogs of adenosine, of inosine, of MeP-dR, and of fluoro- or chloro-substituted adenosine. The enzymes are incubated with 100 micromolar of each compound listed in the table and the rate of enzymatic cleavage is determined by HPLC separation of the base from the nucleoside. […] It is appreciated that the greater biological activity of the Tv-PNP enzyme allows for greater activity in impairing abnormal cell growth when the Tv-PNP is used for treatment of pathological conditions using F-araA as a prodrug substrate.

[2] = molecular target: E. coli PNP (Escherichia coli, UniProt P0ABP8); assay: Substrate cleavage by wild-type E. coli PNP (HPLC); assay type: biochemical; conditions: 100 micromolar substrate, HPLC separation of base from nucleoside
E. coli PNP, sequence (P0ABP8 whole entry): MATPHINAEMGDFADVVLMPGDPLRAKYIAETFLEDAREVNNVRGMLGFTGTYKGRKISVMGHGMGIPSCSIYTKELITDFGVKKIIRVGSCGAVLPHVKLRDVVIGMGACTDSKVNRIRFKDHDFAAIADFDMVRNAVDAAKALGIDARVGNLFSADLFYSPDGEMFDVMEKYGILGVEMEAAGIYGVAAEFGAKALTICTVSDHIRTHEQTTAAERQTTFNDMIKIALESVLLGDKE
Method: as §1
Numerous compounds are tested for efficiency as substrate for Tv-PNP in parallel comparison with E. coli PNP. […] The enzymes are incubated with 100 micromolar of each compound listed in the table and the rate of enzymatic cleavage is determined by HPLC separation of the base from the nucleoside.

Row | Compound | rate of enzymatic cleavage by T. vaginalis PNP [1] | rate of enzymatic cleavage by E. coli PNP [2] | activity of Tv-PNP as compared to wild-type E. coli PNP [1] | rate of enzymatic cleavage by T. vaginalis PNP ([1]; listed as Cl-dAdo) | rate of enzymatic cleavage by E. coli PNP ([2]; listed as Cl-dAdo)
1 | Cc1ncnc2c1ncn2[C@@H]1O[C@H](C(C)(C)O)[C@@H](O)[C@H]1O [9-[5,5-dimethyl-β-D-ribofuranosyl]-6-methylpurine] | <8 nanomoles per milligrams per hour | <1 nanomoles per milligrams per hour | – | – | –
2 | Nc1nc(Cl)nc2c1ncn2[C@H]1C[C@H](O)[C@@H](CO)O1 [2-Cl-2′-deoxyadenosine (β-L), 2-Cl-2′-deoxyadenosine] | <8 nanomoles per milligrams per hour | <1 nanomoles per milligrams per hour | – | – | –
3 | Nc1nc(Cl)nc2c1ncn2[C@H]1C[C@H](O)[C@@H](CO)O1 [2-Cl-2′-deoxyadenosine (α-L), 2-Cl-2′-deoxyadenosine] | <8 nanomoles per milligrams per hour | <1 nanomoles per milligrams per hour | – | – | –
4 | Cc1ncnc2c1ncn2[C@@H]1C[C@H](O)[C@@H](CO)O1 [9-[2-deoxy-α-D-ribofuranosyl]-6-methylpurine] | <8 nanomoles per milligrams per hour | <1 nanomoles per milligrams per hour | – | – | –
5 | Nc1nc2c(ncn2[C@@H]2O[C@H](CO)[C@@H](O)[C@@H]2O)c(=O)[nH]1 [9-β-D-arabinofuranosyl-guanine] | 16 nanomoles per milligrams per hour | 310 nanomoles per milligrams per hour | – | – | –
6 | C[C@H]1O[C@@H](n2cnc3c(N)ncnc32)[C@H](O)[C@@H]1O [5′-deoxyadenosine] | 50,000 nanomoles per milligrams per hour | 8,400 nanomoles per milligrams per hour | – | – | –
7 | Nc1nc(F)nc2c1ncn2[C@@H]1O[C@H](CO)[C@@H](O)[C@H]1O [2-F-adenosine] | 185,000 nanomoles per milligrams per hour | 215,000 nanomoles per milligrams per hour | – | – | –
8 | Nc1nc2ncn([C@@H]3O[C@H](CO)[C@@H](O)[C@H]3O)c2c(=S)[nH]1 [7-β-D-ribosyl-6-thioguanine] | 435 nanomoles per milligrams per hour | 66 nanomoles per milligrams per hour | – | – | –
9 | Cc1ncnc2ncn([C@H]3C[C@H](O)[C@H](CO)O3)c12 [7-[2-deoxy-α-L-lyxofuranosyl]-6-methylpurine] | <8 nanomoles per milligrams per hour | <1 nanomoles per milligrams per hour | – | – | –
10 | Nc1ncnc2c1ncn2[C@@H]1O[C@H](CO)[C@@H](O)[C@@H]1O [9-β-D-arabinofuranosyl-adenine] | 38,000 nanomoles per milligrams per hour | 610 nanomoles per milligrams per hour | – | – | –
11 | Nc1nc(F)nc2c1ncn2[C@@H]1O[C@@H](CO)[C@@H](O)[C@H]1O [9-α-L-lyxofuranosyl-2-F-adenine, 9-(α-L-lyxofuranosyl)-2-fluoroadenine] | 28,200 nanomoles per milligrams per hour | 7,800 nanomoles per milligrams per hour | more activity | – | –
12 | Nc1nc(Cl)nc2c1ncn2[C@H]1C[C@H](O)[C@@H](CO)O1 [2-Cl-2′-deoxyadenosine (Cl-dAdo), 2-chloro-2′-deoxyadenosine, reference compound] | 352,000 nanomoles per milligrams per hour | 39,000 nanomoles per milligrams per hour | more activity | 320,000 nanomoles per milligrams per h | 39,000 nanomoles per milligrams per h
13 | O=c1[nH]cnc2c1ncn2[C@@H]1O[C@H](CO)[C@@H](O)[C@@H]1O [9-β-D-arabinofuranosyl-hypoxanthine] | 48 nanomoles per milligrams per hour | 61 nanomoles per milligrams per hour | – | – | –
14 | Nc1nc(F)nc2c1ncn2[C@H]1C[C@H](O)[C@@H](CO)O1 [2-F-2′-deoxyadenosine (F-dAdo), 2-fluoro-2′-deoxyadenosine] | 400,000 nanomoles per milligrams per hour | 435,000 nanomoles per milligrams per hour | – | – | –
15 | Nc1ncnc2c1ncn2[C@@H]1O[C@H](CO)C[C@H]1O [3′-deoxyadenosine (cordycepin), 3′-deoxyadenosine, reference compound] | 2,000 nanomoles per milligrams per hour | <2 nanomoles per milligrams per hour | – | – | –
16 | C[C@H]1O[C@@H](n2cnc3c(N)nc(F)nc32)[C@H](O)[C@@H]1O [2-F-5′-deoxy-adenosine, 2-fluoro-5′-deoxyadenosine] | 50,000 nanomoles per milligrams per hour | 29,000 nanomoles per milligrams per hour | more activity | – | –
17 | Nc1ncnc2c1ncn2[C@H]1CC[C@@H](CO)O1 [2′,3′-dideoxyadenosine] | 640 nanomoles per milligrams per hour | <2 nanomoles per milligrams per hour | – | – | –
18 | Cc1ncnc2c1ncn2[C@@H]1O[C@@H](CI)[C@@H](O)[C@H]1O [9-[5-deoxy-5-iodo-α-L-lyxofuranosyl]-6-methylpurine] | <8 nanomoles per milligrams per hour | <1 nanomoles per milligrams per hour | – | – | –
19 | Cc1ncnc2c1ncn2[C@@H]1O[C@H](CO)[C@@H](O)[C@H]1O [9-β-D-ribofuranosyl-6-methylpurine] | 155,000 nanomoles per milligrams per hour | 96,000 nanomoles per milligrams per hour | – | – | –
20 | O=c1[nH]cnc2ncn([C@@H]3O[C@H](CO)[C@@H](O)[C@H]3O)c12 [7-β-D-ribosyl-hypoxanthine] | 2,300 nanomoles per milligrams per hour | 5,200 nanomoles per milligrams per hour | – | – | –
21 | Nc1ncnc2c1ncn2[C@@H]1O[C@H](CO)[C@@H](O)[C@H]1O [Adenosine, reference compound] | 501,000 nanomoles per milligrams per hour | – | – | – | –
22 | Nc1nc2c(ncn2[C@@H]2O[C@H](CO)[C@@H](O)[C@H]2O)c(=O)[nH]1 [Guanosine, reference compound] | 14,000 nanomoles per milligrams per hour | 156,000 nanomoles per milligrams per hour | – | – | –
23 | Cc1ncnc2c1ncn2[C@@H]1O[C@@H](C)[C@@H](O)[C@H]1O [9-[5-deoxy-α-L-lyxofuranosyl]-6-methylpurine] | 246 nanomoles per milligrams per hour | 20 nanomoles per milligrams per hour | – | – | –
24 | NC(=O)[C@H]1O[C@@H](n2cnc3c(N)ncnc32)[C@H](O)[C@@H]1O [5′-carboxamide of adenosine] | 33 nanomoles per milligrams per hour | <1 nanomoles per milligrams per hour | – | – | –
25 | NC[C@H]1O[C@@H](n2cnc3c(N)ncnc32)[C@H](O)[C@@H]1O [5′-amino-5′-deoxyadenosine] | 4,200 nanomoles per milligrams per hour | 540 nanomoles per milligrams per hour | – | – | –
26 | CO[C@@H]1[C@H](O)[C@@H](CO)O[C@H]1n1cnc2c(N)ncnc21 [2′-O^methyl-adenosine] | <10 nanomoles per milligrams per hour | <1 nanomoles per milligrams per hour | – | – | –
27 | Nc1ncnc2c1ncn2[C@@H]1O[C@H](CO)[C@H](O)[C@H]1O [9-β-D-xylofuranosyl-adenine] | 2 nanomoles per milligrams per hour | <2 nanomoles per milligrams per hour | – | – | –
28 | Cc1ncnc2c1ncn2[C@@H]1O[C@@H](CO)[C@@H](O)[C@H]1O [9-α-L-lyxofuranosyl-6-methylpurine] | 10,000 nanomoles per milligrams per hour | 320 nanomoles per milligrams per hour | – | – | –
29 | Cc1ncnc2c1ncn2[C@@H]1O[C@H](C)[C@@H](O)[C@H]1O [9-[5-deoxy-β-D-ribofuranosyl]-6-methylpurine] | 3,600 nanomoles per milligrams per hour | 406 nanomoles per milligrams per hour | – | – | –
30 | Cc1ncnc2c1ncn2[C@H]1C[C@H](O)[C@@H]([C@H](C)O)O1 [9-[5-methyl-(talo)-2-deoxy-β-D-ribofuranosyl]-6-methylpurine] | 103,000 nanomoles per milligrams per hour | 3,600 nanomoles per milligrams per hour | more activity | – | –
